Experimental data taken from patent publication US11040047B2, “Prodrugs of nucleoside phosphonates” (Katholieke Universiteit Leuven, priority 2017, dated 2021).
Read-outs that look alike come from different tables or passages of the source.

Legend:
[1] = tested on: varicella-zoster virus (VZV) strain Oka; assay: Inhibition of plaque formation, VZV TK+ Oka, in HEL fibroblasts; assay type: cell-based; details: Human alphaherpesvirus 3, HEL, read-out: Antiviral activity EC50 VZV TK+ strain (OKA)
TK− VZV strain 07-1 = assay: microbe, parasite or virus in culture; assay type: cell-based, varicella-zoster virus; details: Human alphaherpesvirus 3, HEL, read-out: Antiviral activity EC50 VZV TK− strain
[2] = tested on: human cytomegalovirus (HCMV) strain AD-169; assay: Inhibition of virus-induced cytopathicity, HCMV AD-169, in HEL fibroblasts; assay type: cell-based; details: read-out: Antiviral activity EC50 HCMV AD-169 strain
[3] = tested on: human cytomegalovirus (HCMV) strain Davis; assay: Inhibition of virus-induced cytopathicity, HCMV Davis, in HEL fibroblasts; assay type: cell-based; details: read-out: Antiviral activity EC50 HCMV Davis strain
in vitro = details: human
HEL cells [4] = assay: Cytotoxicity, minimum cytotoxic concentration (cell morphology) in HEL cells; details: minimum concentration causing microscopically detectable alteration of cell morphology
HEL cells [5] = assay: Cytostatic activity, inhibition of HEL cell growth (CC50); details: read-out: Cytotoxicity HEL cells CC50, concentration reducing cell viability/proliferation by 50%, 3 days
[6] = tested on: Vaccinia virus (strain Lederle, ATCC VR-118); assay: microbe, parasite or virus in culture; assay type: cell-based; details: Orthopoxvirus vaccinia, HEL 299, 96 h, read-out: Antiviral activity EC50 Vaccinia virus
[7] = tested on: human adeno virus-2 (clinical isolate C251085); assay: Inhibition of virus-induced cytopathicity, human adeno virus-2, in HEL 299 cells; assay type: cell-based; details: Human mastadenovirus C, 240 h, 10 days, cytopathicity reduced by 50%, read-out: Antiviral activity EC50 Adenovirus 2
HEL 299 cells = details: human
[8] = Human betaherpesvirus 5, AD169, HEL
[9] = Human betaherpesvirus 5, AD169, HEL cells, reduction of virus-induced cytopathicity by 50%

Row | SMILES | EC50 [1] [nM] | EC50 (TK− VZV strain 07-1) [nM] | EC50 [2, 8] [nM] | EC50 ([3]; Human betaherpesvirus 5, HEL) [nM] | CC50 at 3 days (in vitro) [nM] | Cytotoxicity HEL cells MCC (HEL cells [4]; Table 1) | Cytotoxicity HEL cells MCC (HEL cells [4]; Table 2) | CC50 (HEL cells [5]; Table 1) [nM] | CC50 at 3 days (in vitro; HEL cells) [nM] | EC50 [6] [nM] | EC50 [7] [nM] | Cytotoxicity MCC (HEL 299 cells) | CC50 (HEL cells [5]; Table 2) [nM] | EC50 [2, 9] [nM] | EC50 ([3]; Human betaherpesvirus 5, HEL cells, reduction of virus-induced cytopathicity by 50%) [nM]
1 | CCCCCOC(=O)[C@@H](NP1(=O)CO[C@@H](Cn2cnc3c(N)ncnc32)CO1)C(C)C (stereo partly drawn) [Example 16, Amyl {(5S)-5-[(6-amino-9H-purin-9-yl)methyl]-2-oxido-1,4,2-dioxaphosphinan-2-yl}-L-valinate] | 0.57 | 1.5 | 5.9 | 4.8 | 7760 | 4.40 | 4.40 |  |  |  |  |  |  |  | 
2 | CCCCCOC(=O)C[C@H](NP1(=O)CO[C@H](Cn2cnc3c(N)ncnc32)CO1)C(=O)OCCCCC (stereo partly drawn) [Example 9, Diamyl {(5R)-5-[(6-amino-9H-purin-9-yl)methyl]-2-oxido-1,4,2-dioxaphosphinan-2-yl}-L-aspartate] | 33 | 62 | 4390 | 1620 | 11600 | >18.5 | >18.5 |  |  |  |  |  |  |  | 
3 | CCCCCOC(=O)[C@@H](NP1(=O)CO[C@@H](Cn2cnc3c(N)ncnc32)CO1)[C@@H](C)CC (stereo partly drawn) [Example 18, Amyl {(5S)-5-[(6-amino-9H-purin-9-yl)methyl]-2-oxido-1,4,2-dioxaphosphinan-2-yl}-L-isoleucinate] | 0.45 | 0.54 | 7 | 6.5 | 12000 | 9.96 | 9.96 |  |  |  |  |  |  |  | 
4 | Nc1nc2c(ncn2CCC(CO)CO)c(=O)[nH]1 [Penciclovir, reference compound] |  |  |  |  |  | >79.0 |  | > 395000 |  |  |  |  |  |  | 
5 | CCCCCOC(=O)C[C@H](NP1(=O)CO[C@@H](Cn2ccc(N)nc2=O)CO1)C(=O)OCCCCC (stereo partly drawn) [Example 10, Diamyl {(5S)-5-[(4-amino-2-oxopyrimidin-1(2H)-yl)methyl]-2-oxido-1,4,2-dioxaphosphinan-2-yl}-L-aspartate] | 5.5 | 6.3 | 12 | 19 |  | 19.4 | 19.4 |  | 33100 |  |  |  |  |  | 
6 | Nc1nc2c(ncn2COCCO)c(=O)[nH]1 [Acyclovir, reference compound] |  |  |  |  |  | >88.8 | >88.8 |  |  |  |  |  |  |  | 
7 | CCCCCOC(=O)[C@@H](NP(=O)(CO[C@H](CO)Cn1cnc2c(N)ncnc21)N[C@H](C(=O)OCCCCC)C(C)C)C(C)C [Example 19, diamyl 2,2′-((((((S)-1-(6-amino-9H-purin-9-yl)-3-hydroxypropan-2-yl)oxy)methyl)phosphoryl)bis(azanediyl))(2S,2′S)-bis(3-methylbutanoate)] | 1.5 | 0.95 | 100 | 72 | 600 | 8.57 | 8.57 |  |  | 42.5 | 13.5 | ≥20 |  |  | 
8 | CCCCCOC(=O)[C@H](CC(C)C)NP1(=O)CO[C@@H](Cn2cnc3c(N)ncnc32)CO1 (stereo partly drawn) [Example 17, Amyl {(5S)-5-[(6-amino-9H-purin-9-yl)methyl]-2-oxido-1,4,2-dioxaphosphinan-2-yl}-L-leucinate] | 0.47 | 0.59 | 5.7 | 3.8 | 1620 | 4.27 | 4.27 |  |  | 77.5 | 43.5 | ≥0.8 |  |  | 
9 | CCCCCOC(=O)CC[C@H](NP1(=O)CO[C@@H](Cn2cnc3c(N)ncnc32)CO1)C(=O)OCCCCC (stereo partly drawn) [Example 15, Diamyl {(5S)-5-[(6-amino-9H-purin-9-yl)methyl]-2-oxido-1,4,2-dioxaphosphinan-2-yl}-L-glutamate] | 0.58 | 0.95 | 14 | 7.6 | 520 | 13.2 | 13.2 |  |  |  |  |  |  |  | 
10 | CCCCCOC(=O)C[C@H](NP1(=O)CO[C@H](Cn2ccc(N)nc2=O)CO1)C(=O)OCCCCC (stereo partly drawn) [Example 11, Diamyl {(5R)-5-[(4-amino-2-oxopyrimidin-1(2H)-yl)methyl]-2-oxido-1,4,2-dioxaphosphinan-2-yl}-L-aspartate] | 810 | 1240 | 2680 | 3530 |  | >19 | >19 |  | > 194000 |  |  |  | > 194000 |  | 
11 | Nc1nc(O)c2ncn(COC(CO)CO)c2n1 [Ganciclovir, reference compound] |  |  |  |  |  | >39.2 | >39.2 |  |  |  |  |  |  | 7400 | 
12 | CCCCCOC(=O)[C@H](CCSC)NP1(=O)CO[C@@H](Cn2cnc3c(N)ncnc32)CO1 (stereo partly drawn) [Example 13, Amyl ((5S)-5-((6-amino-9H-purin-9-yl)methyl)-2-oxido-1,4,2-dioxaphosphinan-2-yl)-L-methioninate] | 2.6 | 4 | 32 | 29 | 39600 | 4.11 | 4.11 |  |  |  |  |  |  |  | 
13 | CCCCCOC(=O)[C@H](C)NP1(=O)CO[C@@H](Cn2cnc3c(N)ncnc32)CO1 (stereo partly drawn) [Example 14, Amyl ((5S)-5-((6-amino-9H-purin-9-yl)methyl)-2-oxido-1,4,2-dioxaphosphinan-2-yl)-L-alaninate] | 2 | 4.3 | 64 | 65 | 3400 | 23.5 | 23.5 |  |  |  |  |  |  |  | 
14 | Nc1ccn(C[C@@H](CO)OCP(=O)(O)O)c(=O)n1 [Cidofovir, reference compound] |  |  |  |  |  | >71.6 | >71.6 | > 358000 | > 358000 | 50000 | 10000 | >250 |  | 1600 | 840
15 | O=c1[nH]c(=O)n([C@H]2C[C@H](O)[C@@H](CO)O2)cc1/C=C/Br [Brivudin, reference compound] | 53 | 22100 |  |  | > 300000 | >30.0 | >30.0 | > 300000 |  | 5800 |  | >250 |  |  | 
16 | CCCCCOC(=O)[C@H](Cc1ccccc1)NP1(=O)CO[C@@H](Cn2cnc3c(N)ncnc32)CO1 (stereo partly drawn) [Example 12, Amyl ((5S)-5-((6-amino-9H-purin-9-yl)methyl)-2-oxido-1,4,2-dioxaphosphinan-2-yl)-L-phenylalaninate] | 0.52 | 3.2 | 31 | 17 | 30600 | 9.3 | 9.3 |  |  |  |  |  |  |  | 
17 | CCCCCOC(=O)C[C@H](NP1(=O)CO[C@@H](Cn2cnc3c(N)ncnc32)CO1)C(=O)OCCCCC (stereo partly drawn) [Example 8, Diamyl {(5S)-5-[(6-amino-9H-purin-9-yl)methyl]-2-oxido-1,4,2-dioxaphosphinan-2-yl}-L-aspartate] | 1.4 | 1.5 | 27 | 9 | 2730 | 13.6 | 13.6 |  |  | 77 | 183 | ≥20 |  |  | 
